{"source": "patent US10973868B2", "about": "“Composition for topical use based on a carnosine-magnesium complex” (Outplay Inc., priority 2016, dated 2021)", "key": {"horse fibre types": {"test_system": "horse fibre types", "details": "cited from earlier work"}, "[1]": {"test_system": "muscle fibres of Rana Temporaria", "details": "15 mM of carnosine; cited from earlier work"}, "mice": {"test_system": "mice", "details": "cited from earlier work"}, "[2]": {"test_system": "children with autistic spectrum disorders", "details": "after 8 weeks, P<0.05; cited from earlier work"}, "[3]": {"test_system": "rat extensor digitorum longus muscle fibres", "details": "mechanically skinned fibres; cited from earlier work"}, "[4]": {"test_system": "adults with chronic schizophrenia", "test": "L-carnosine adjunctive treatment in chronic schizophrenia, strategic target detection test", "format": "in vivo, human", "details": "2 g/day adjunctive, 3 months, vs placebo", "description": "Improved Cognition In Schizophrenia: Targeting glutamatergic dysfunction provides an exciting opportunity to improve cognitive impairment in schizophrenia. One treatment approach has targeted inadequate antioxidant defenses at glutamatergic synapses. […] We conducted a preliminary study to test the hypothesis that L-carnosine, an antioxidant and anti-glycation agent which is co-localized and released with glutamate would improve executive dysfunction, a cognitive domain associated with glutamate. Seventy-five symptomatically stable adults with chronic schizophrenia were randomly assigned to L-carnosine as adjunctive treatment (2 g/day) or a matched placebo in a double-blind manner for 3 months. […] The recommended dosage is 4-6 ml of the exemplary composition of the topical composition illustrated above four times a day applied to all four limbs."}, "[5]": {"details": "aqueous solution; cited from earlier work"}}, "note": "Like-named read-outs stand apart in the source and are kept apart here."}
{"smiles": "NCCC(=O)N[C@@H](Cc1c[nH]cn1)C(=O)O", "note": "[carnosine, β-alanyl-L-histidine]", "values": [{"measurement": "contribution to buffering", "setting": "horse fibre types; type I fibres", "value": "about 20%"}, {"measurement": "contribution to buffering", "setting": "horse fibre types; type IIb fibres", "value": "up to 46%"}, {"measurement": "Ca^2+ sensitivity", "setting": "[1]", "value": "significant increase"}, {"measurement": "amount of brain tissue involved in experimentally-produced strokes", "setting": "mice", "value": "significantly reduced"}, {"measurement": "Gilliam Autism Rating Scale (total score and Behavior, Socialization, Communication subscales)", "setting": "[2]", "value": "statistically significant improvements"}, {"measurement": "Receptive One-Word Picture Vocabulary test", "setting": "[2]", "value": "statistically significant improvements"}, {"measurement": "Ca^2+ release from the sarcoplasmic reticulum", "setting": "[3]", "value": "did not affect"}, {"measurement": "Ca^2+ sensitivity of the contractile components", "setting": "[3]", "value": "increase"}, {"measurement": "perseverative errors on the strategic target detection test", "setting": "[4]", "value": "fewer perseverative errors"}, {"measurement": "strategic efficiency on the strategic target detection test", "setting": "[4]", "value": "significantly improved"}, {"measurement": "pK of the carboxylic function", "setting": "[5]", "value": 2.6}]}
